In patent US11053204B2, “Pyrimidinyloxy benzene derivatives as herbicides” (FMC Corporation, priority 2015, dated 2021):

How the values were obtained:
Assay type in all cases: in vivo
[1] = test system: Italian ryegrass (Lolium multiflorum); experiment: Test A postemergence, visual injury rating; details: 0 to 100 scale, 0 is no effect, 100 is complete control, approximately 10 days
Procedure, shortened: (§1)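 Greenhouse pot test, loam/sand soil. Formulation: non-phytotoxic solvent mix plus surfactant. Pre: directed spray onto soil after sowing. Post: plants at 1–2 leaf, 2–10 cm. Rated visually vs untreated controls at ~10 d, 0 (no effect) to 100 (complete control).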

[2] = test system: barnyardgrass (Echinochloa crus-galli); experiment: Test A postemergence, visual injury rating; details: 0 to 100 scale, 0 is no effect, 100 is complete control, approximately 10 days
Procedure, shortened: as §1

[3] = test system: blackgrass (Alopecurus myosuroides); experiment: Test A postemergence, visual injury rating; details: 0 to 100 scale, 0 is no effect, 100 is complete control, approximately 10 days
Procedure, shortened: as §1

corn (Zea mays) = experiment: Test A postemergence, visual injury rating; details: 0 to 100 scale, 0 is no effect, 100 is complete control, approximately 10 days
Procedure, shortened: as §1

[4] = test system: galium (catchweed bedstraw, Galium aparine); experiment: Test A postemergence, visual injury rating; details: 0 to 100 scale, 0 is no effect, 100 is complete control, approximately 10 days
Procedure, shortened: as §1

[5] = test system: giant foxtail (Setaria faberii); experiment: Test A postemergence, visual injury rating; details: 0 to 100 scale, 0 is no effect, 100 is complete control, approximately 10 days
Procedure, shortened: as §1

kochia (Kochia scoparia) = experiment: Test A postemergence, visual injury rating; details: 0 to 100 scale, 0 is no effect, 100 is complete control, approximately 10 days
Procedure, shortened: as §1

[6] = test system: pigweed (Amaranthus retroflexus); experiment: Test A postemergence, visual injury rating; details: 0 to 100 scale, 0 is no effect, 100 is complete control, approximately 10 days
Procedure, shortened: as §1

[7] = test system: ragweed (common ragweed, Ambrosia elatior); experiment: Test A postemergence, visual injury rating; details: 0 to 100 scale, 0 is no effect, 100 is complete control, approximately 10 days
Procedure, shortened: as §1

[8] = test system: wheat (Triticum aestivum); experiment: Test A postemergence, visual injury rating; details: 0 to 100 scale, 0 is no effect, 100 is complete control, approximately 10 days
Procedure, shortened: as §1

[9] = test system: barnyardgrass (Echinochloa crus-galli); experiment: Test B flooded paddy test, plant response rating; details: 250 g ai/ha; Flood; scale of 0 to 100 where 0 is no effect and 100 is complete control; 13 to 15 days
Procedure, shortened: (§2)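 Flooded 3 cm over soil; compound into paddy water; depth kept constant. Greenhouse 13–15 d.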

[10] = test system: ducksalad (Heteranthera limosa); experiment: Test B flooded paddy test, plant response rating; details: 250 g ai/ha; Flood; scale of 0 to 100 where 0 is no effect and 100 is complete control; 13 to 15 days
Procedure, shortened: as §2

rice (Oryza sativa) = experiment: Test B flooded paddy test, plant response rating; details: 250 g ai/ha; Flood; scale of 0 to 100 where 0 is no effect and 100 is complete control; 13 to 15 days
Procedure, shortened: as §2

[11] = test system: sedge, umbrella (small-flower umbrella sedge, Cyperus difformis); experiment: Test B flooded paddy test, plant response rating; details: 250 g ai/ha; Flood; scale of 0 to 100 where 0 is no effect and 100 is complete control; 13 to 15 days
Procedure, shortened: as §2

[12] = test system: barnyardgrass (Echinochloa crus-galli); experiment: Test C preemergence, plant response rating; details: Preemergence
[13] = test system: galium (catchweed bedstraw, Galium aparine); experiment: Test C postemergence, plant response rating; details: for Galium plant response rating: scale 0 to 100 (0 no effect, 100 complete control)
Procedure, shortened: (§3)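 Greenhouse plants rated visually against untreated controls 13–15 d after treatment, scale 0 = no effect to 100 = complete control. Postemergence sprays went onto potted plants 2–18 cm tall (1–4 leaves); preemergence sprays onto soil freshly sown in loam–sand or silt loam, chemicals formulated in non-phytotoxic solvent with surfactant.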

[14] = test system: ragweed (common ragweed, Ambrosia elatior); experiment: Test C postemergence, plant response rating; details: for Ragweed plant response rating: scale 0 to 100 (0 no effect, 100 complete control)
Procedure, shortened: as §3

[15] = test system: velvetleaf (Abutilon theophrasti); experiment: Test C postemergence, plant response rating; details: for Velvetleaf plant response rating: 125 g ai/ha, scale 0 to 100 (0 no effect, 100 complete control)
Procedure, shortened: as §3

[16] = test system: waterhemp (common waterhemp, Amaranthus rudis); experiment: Test C postemergence, plant response rating; details: for Waterhemp plant response rating: 125 g ai/ha, scale 0 to 100 (0 no effect, 100 complete control)
Procedure, shortened: as §3

With `FC(F)(F)CCCc1c(Br)cccc1Oc1ncc(Cl)cn1` [Compound 89] the “Ryegrass, Italian plant response rating” value ([1]; 31 g ai/ha) was 10, the “Ryegrass, Italian plant response rating” value ([1]; 125 g ai/ha) was 30 and the “Barnyardgrass plant response rating” value ([2]; 31 g ai/ha) was 30. For the same compound, the “Barnyardgrass plant response rating” value ([2]; 125 g ai/ha) was 90, the “Blackgrass plant response rating” value ([3]; 31 g ai/ha) was 20 and the “Blackgrass plant response rating” value ([3]; 125 g ai/ha) was 60. For the same compound, the “Corn plant response rating” value (corn (Zea mays); 31 g ai/ha) was 10, the “Corn plant response rating” value (corn (Zea mays); 125 g ai/ha) was 20 and the “Galium plant response rating” value ([4]; 31 g ai/ha) was 30. For the same compound, the “Galium plant response rating” value ([4]; 125 g ai/ha) was 80, the “Foxtail, Giant plant response rating” value ([5]; 31 g ai/ha) was 20 and the “Foxtail, Giant plant response rating” value ([5]; 125 g ai/ha) was 50. For the same compound, the “Kochia plant response rating” value (kochia (Kochia scoparia); 31 g ai/ha) was 80, the “Kochia plant response rating” value (kochia (Kochia scoparia); 125 g ai/ha) was 90 and the “Pigweed plant response rating” value ([6]; 31 g ai/ha) was 90. For the same compound, the “Pigweed plant response rating” value ([6]; 125 g ai/ha) was 90, the “Ragweed plant response rating” value ([7]; 31 g ai/ha) was 10 and the “Ragweed plant response rating” value ([7]; 125 g ai/ha) was 10. For the same compound, the “Wheat plant response rating” value ([8]; 31 g ai/ha) was 0, the “Wheat plant response rating” value ([8]; 125 g ai/ha) was 20 and the “Plant response rating, Barnyardgrass” value [9] was 40. The “Plant response rating, Ducksalad” value [10] was 95, the “Plant response rating, Rice” value (rice (Oryza sativa)) was 40 and the “Plant response rating, Sedge, Umbrella” value [11] was 95. For the same compound, the “Plant response rating, Barnyardgrass” value ([12]; 125 g ai/ha, scale of 0 to 100) was 100, the “Plant response rating, Barnyardgrass” value ([12]; 16 g ai/ha, scale 0 to 100) was 5 and the “Plant response rating, Barnyardgrass” value ([12]; 31 g ai/ha, scale 0 to 100) was 35. The “Plant response rating, Barnyardgrass” value ([12]; 62 g ai/ha, scale 0 to 100) was 90, the “Plant response rating, Galium” value ([13]; 16 g ai/ha, scale of 0 to 100) was 75 and the “Plant response rating, Galium” value ([13]; 31 g ai/ha, scale 0 to 100) was 75. For the same compound, the “Galium plant response rating” value ([13]; 62 g ai/ha) was 80, the “Galium plant response rating” value ([13]; 125 g ai/ha) was 90 and the “Plant response rating, Ragweed” value ([14]; 16 g ai/ha, scale of 0 to 100) was 0. The “Plant response rating, Ragweed” value ([14]; 31 g ai/ha, scale 0 to 100) was 5, the “Ragweed plant response rating” value ([14]; 62 g ai/ha) was 10 and the “Ragweed plant response rating” value ([14]; 125 g ai/ha) was 25. The “Plant response rating, Velvetleaf” value ([15]; 16 g ai/ha, scale of 0 to 100) was 20, the “Plant response rating, Velvetleaf” value ([15]; 31 g ai/ha, scale 0 to 100) was 35 and the “Velvetleaf plant response rating” value [15] was 70. For the same compound, the “Plant response rating, Waterhemp” value ([16]; 16 g ai/ha, scale of 0 to 100) was 70, the “Plant response rating, Waterhemp” value ([16]; 31 g ai/ha, scale 0 to 100) was 70 and the “Waterhemp plant response rating” value [16] was 95.
`O=C(CCC(F)(F)F)c1c(Br)cccc1Oc1ncc(Cl)cn1` [Compound 92] was tested, and the “Ryegrass, Italian plant response rating” value ([1]; 31 g ai/ha) was 0, the “Ryegrass, Italian plant response rating” value ([1]; 125 g ai/ha) was 50 and the “Barnyardgrass plant response rating” value ([2]; 31 g ai/ha) was 40. The “Barnyardgrass plant response rating” value ([2]; 125 g ai/ha) was 100, the “Blackgrass plant response rating” value ([3]; 31 g ai/ha) was 10 and the “Blackgrass plant response rating” value ([3]; 125 g ai/ha) was 50. For the same compound, the “Corn plant response rating” value (corn (Zea mays); 31 g ai/ha) was 10, the “Corn plant response rating” value (corn (Zea mays); 125 g ai/ha) was 40 and the “Galium plant response rating” value ([4]; 31 g ai/ha) was 90. The “Galium plant response rating” value ([4]; 125 g ai/ha) was 100, the “Foxtail, Giant plant response rating” value ([5]; 31 g ai/ha) was 50 and the “Foxtail, Giant plant response rating” value ([5]; 125 g ai/ha) was 100. The “Kochia plant response rating” value (kochia (Kochia scoparia); 31 g ai/ha) was 100, the “Kochia plant response rating” value (kochia (Kochia scoparia); 125 g ai/ha) was 100 and the “Pigweed plant response rating” value ([6]; 31 g ai/ha) was 100. For the same compound, the “Pigweed plant response rating” value ([6]; 125 g ai/ha) was 100, the “Ragweed plant response rating” value ([7]; 31 g ai/ha) was 0 and the “Ragweed plant response rating” value ([7]; 125 g ai/ha) was 20. For the same compound, the “Wheat plant response rating” value ([8]; 31 g ai/ha) was 0, the “Wheat plant response rating” value ([8]; 125 g ai/ha) was 20 and the “Plant response rating, Barnyardgrass” value [9] was 25. For the same compound, the “Plant response rating, Ducksalad” value [10] was 100, the “Plant response rating, Rice” value (rice (Oryza sativa)) was 0 and the “Plant response rating, Sedge, Umbrella” value [11] was 100. For the same compound, the “Plant response rating, Barnyardgrass” value ([12]; 125 g ai/ha, scale of 0 to 100) was 100, the “Plant response rating, Barnyardgrass” value ([12]; 16 g ai/ha, scale 0 to 100) was 35 and the “Plant response rating, Barnyardgrass” value ([12]; 31 g ai/ha, scale 0 to 100) was 85. For the same compound, the “Plant response rating, Barnyardgrass” value ([12]; 62 g ai/ha, scale 0 to 100) was 98, the “Plant response rating, Galium” value ([13]; 16 g ai/ha, scale of 0 to 100) was 80 and the “Plant response rating, Galium” value ([13]; 31 g ai/ha, scale 0 to 100) was 85. For the same compound, the “Galium plant response rating” value ([13]; 62 g ai/ha) was 100, the “Galium plant response rating” value ([13]; 125 g ai/ha) was 100 and the “Plant response rating, Ragweed” value ([14]; 16 g ai/ha, scale of 0 to 100) was 35. For the same compound, the “Plant response rating, Ragweed” value ([14]; 31 g ai/ha, scale 0 to 100) was 40, the “Ragweed plant response rating” value ([14]; 62 g ai/ha) was 60 and the “Ragweed plant response rating” value ([14]; 125 g ai/ha) was 70. For the same compound, the “Plant response rating, Velvetleaf” value ([15]; 16 g ai/ha, scale of 0 to 100) was 35, the “Plant response rating, Velvetleaf” value ([15]; 31 g ai/ha, scale 0 to 100) was 50 and the “Velvetleaf plant response rating” value [15] was 85. For the same compound, the “Plant response rating, Waterhemp” value ([16]; 16 g ai/ha, scale of 0 to 100) was 80, the “Plant response rating, Waterhemp” value ([16]; 31 g ai/ha, scale 0 to 100) was 85 and the “Waterhemp plant response rating” value [16] was 100.
